Consider seven compounds from patent US4820824A, “Mitomaycin compounds” (Kyowa Hakko Kogyo Kabushiki Kaisha, priority 1986, dated 1989).

In brackets after ≈: the same amount, converted by molar mass. Read-outs that look alike come from different tables or passages of the source.

Data set [1] concerns Streptococcus faecalis ATCC 10541. The experiment in a line: Antibacterial activity, agar dilution method (MIC), Streptococcus faecalis. The format is cell-based. The settings on record: Enterococcus faecalis, ATCC10541, pH 7.0, read-out: Minimum inhibitory concentration (MIC), SF. The method, then:
(§1) Antibacterial activities of Compounds (I) against various microorganisms are shown in the following Table 5, in which the minimum inhibitory concentration MIC (μg/ml) was measured by the agar dilution method at a pH of 7.0.
(§2) In this table, the following abbreviations are used: SF-Streptococcus faecalis ATCC 10541; SA-Staphylococcus aureus ATCC6538P; BS-Bacillus subtilis 10707; PV-Proteus vulgaris ATCC6897; KP-Klebsiella pneumoniae ATCC10031.
Background: In agar dilution, organisms are placed on agar that contains the substance at set levels.

Data set [2] relates to Bacillus subtilis 10707. Nature of the data set: Antibacterial activity, agar dilution method (MIC), Bacillus subtilis. The class given is cell-based. The settings on record: pH 7.0, read-out: Minimum inhibitory concentration (MIC), BS. The method, then:
as §1, §2

Data set [3] concerns Klebsiella pneumoniae ATCC10031. Nature of the data set: Antibacterial activity, agar dilution method (MIC), Klebsiella pneumoniae. To be noted: pH 7.0, read-out: Minimum inhibitory concentration (MIC), KP. The format is cell-based. Here is the method: as §1, §2
Data set [4] in a line: Acute toxicity. To be noted: mouse, in vivo, ip; ddy mice, single abdominal administration, 14 days observation, Behrens-Korber's method. An excerpt:
(§3) Certain Compounds (I) and Sarcoma 180 solid tumour were used to determine, on each occasion, antitumour activity (ED50), acutee toxicity (LD50) and effect upon peripherical leucocytes (WBC4000), as shown Table 6.
The test compound was abdominally administered once to ddy mice, each group consisting of 5 animals.

Data set [5] concerns peripheral leucocytes. Nature of the data set: Effect upon peripheral leucocytes (bone marrow toxicity). The class given is in vivo, male mice (ddy strain). To be noted: minimum dose decreasing peripheral leucocytes to 4000/mm^3; tumour-bearing ddy mice, intraperitoneal, blood 4 days later. The method, then:
as §3
of peripheral leucocytes to 4000/mm^3.
Sarcoma 180 solid tumour cells (5×10^6) were subcutaneously implanted under the skin of the right armpit of each mouse (body weight 20±2 g) of a group consisting of 5 male mice (ddy strain). 24 hours after this, a test compound was intraperitoneally administered to each animal. 4 days later, blood (0.02 ml) was collected from the suborbital plexus vein of each tumour-carrying animal. The collected sample of blood was dispersed in 9.98 ml of Cellkit Seven solution. One drop of saponin solution was added to the sample to dissolve erythrocytes and then a microcell counter was used to measure the number of leucocytes. On graph paper, the number of leucocytes was plotted on the ordinate using an arithmetic scale, and the dosage was plotted on the abscissa using a logarithmic scale to show the relationship of the dosage to the number of peripherical leucocytes, from which the value of WBC4000 viz. a value capable of giving 4000 peripheral leucocytes per mm^3 (about half of the corresponding value in normal mice) was obtained.

Data set [6] has as its system Proteus vulgaris ATCC6897. The experiment in a line: Antibacterial activity, agar dilution method (MIC), Proteus vulgaris. The format is cell-based. The settings on record: pH 7.0, read-out: Minimum inhibitory concentration (MIC), PV. The method, then:
as §1, §2

Data set [7] concerns Staphylococcus aureus ATCC6538P. The experiment in a line: Antibacterial activity, agar dilution method (MIC), Staphylococcus aureus. To be noted: pH 7.0, read-out: Minimum inhibitory concentration (MIC), SA. The class given is cell-based. Here is the method: as §1, §2
Data set [8] deals with Sarcoma 180 solid tumour. Nature of the data set: Antitumour activity against Sarcoma 180 solid tumour. To be noted: for ED50: Mus musculus, Sarcoma-180, iv, 168 h; for C.I. (LD50/ED50): chemotherapeutic index LD50/ED50, Sarcoma 180, ddy mice. The class given is in vivo, ddy male mouse.
From the text: as §3
5×10^6 cells of Sarcoma 180 solid tumour were abdominally implanted into a ddy mouce. 7 days after this, the cells were collected from the ascites fluid. The cells were washed once with physiological saline under sterile conditions and suspended in physiological saline to obtain a cell suspension containing 5×10^7 cells/ml, of which 0.1 ml was implanted into a ddy male mouce (body weight 20±2 g) under the skin of the right armpit. The test compound was dissolved in physiological saline or the same solution containing Tween 80. 24 hours after implantation of the tumour cells, 0.1-0.2 ml of the solution containing the test compound was administered to the tail vein of each animal in the test group consisting of 5 animals. 7 days after the implantation, the major axis (a) and minor axis (b) of the tumour were measured to calculate the volume of the tumour as ("a"×"b^2 ")/2. The antitumour effect was indicated by T/C which is the ratio of the tumour volume in the test animals to the corresponding volume of the control (untreated) animals.
ED50 denotes the dosage capable of decreasing the volume of Sarcoma 180 solid tumour to 50% of the corresponding volume of the control animals. T/C ratios and the dose were respectively plotted on the ordinate using an arithmetic scale and on the abscissa using a logarithmic scale, the relationship between the dosage and the T/C ratio being converted to a straight line by the least squares method. From the straight tropic line thus-obtained, the dosage corresponding to a T/C=0.5 viz. ED50 was determined.

A short description of data set [9]: Water-solubility. The class given is physicochemical.
Where [10] appears, read: dose giving T/C=0.5 tumour volume, single tail vein administration 24 hours after implantation, measured 7 days after implantation, read-out: ED50.

Usually LD50 stands for the dose at which mortality reaches 50%. Read a high LD50 as a less toxic substance. By ED50 is commonly meant the dose that gives a 50% effect, or the effect in half of the subjects. Regarding `CO[C@@]12[C@H](COC(N)=O)C3=C(C(=O)C(C)=C(N=P(c4ccccc4)(c4ccccc4)c4ccccc4)C3=O)N1C[C@@H]1N[C@@H]12` [Compound 9, 7-demethoxy-7-triphenylphosphiniminomitomycin A], the MIC was 13 µg/mL (≈ 21.9 µM) in data set [1]; 3.1 µg/mL (≈ 5.21 µM) in [2]; 13 µg/mL (≈ 21.9 µM) in data set [3]; 25 µg/mL (≈ 42 µM) in data set [6]; 13 µg/mL (≈ 21.9 µM) in data set [7]. For the same compound, the LD50 at 336 h in data set [4] was over 100 mg/kg. In data set [5], this compound returned a WBC4000 of over 100 mg/kg. In data set [8], the ED50 is 100 mg/kg. In addition, the “C.I. (LD50/ED50)” value in data set [8] is listed as at least 1.0.
Broadly, the solubility is how much of the substance goes into solution per volume. Consider `CCS(CC)=NC1=C(C)C(=O)C2=C(C1=O)[C@@H](COC(N)=O)[C@@]1(OC)[C@H]3N[C@H]3CN21` [Compound 6], for which the MIC came out at 0.078 µg/mL (≈ 0.185 µM) in [1]; 0.02 µg/mL (≈ 0.0473 µM) in data set [2]; 0.039 µg/mL (≈ 0.0923 µM) in data set [3]; 0.039 µg/mL (≈ 0.0923 µM) in data set [6]; 0.039 µg/mL (≈ 0.0923 µM) in [7]. The compound further gave an LD50 at 336 h in data set [4] of 9.4 mg/kg. Moreover, the WBC4000 in data set [5] is on record as 5.6 mg/kg. In data set [9], this compound yielded a solubility of over 40 mg/mL. In data set [8] (setting [10]), the ED50 worked out at 2.5 mg/kg. Further, in data set [8], the “C.I. (LD50/ED50)” value is recorded as 3.8.
Turning to `CC1=C(N=S(c2ccccc2)c2ccccc2)C(=O)C2=C(C1=O)N1C[C@H]3[C@H](N3C)[C@]1(O)[C@H]2COC(N)=O` (stereo partly shown) [Compound 2], the MIC in data set [1] was found to be 0.78 µg/mL (≈ 1.5 µM); in [2], 0.2 µg/mL (≈ 0.386 µM); in data set [3], 25 µg/mL (≈ 48.2 µM); in data set [7], 0.78 µg/mL (≈ 1.5 µM). Besides, the LD50 at 336 h in data set [4] is over 200 mg/kg. In [5], this compound had a WBC4000 of over 200 mg/kg. Also, in data set [8] (setting [10]), the 50% effective dose (ED50) was found to be 89.1 mg/kg. Further, the “C.I. (LD50/ED50)” value in data set [8] is given as over 2.2.
In the case of `CCS(CC)=NC1=C(C)C(=O)C2=C(C1=O)[C@H](COC(N)=O)[C@@]1(O)[C@@H]3[C@H](CN21)N3C` (stereo partly shown) [Compound 7], the MIC in data set [1] came to 20 µg/mL (≈ 47.3 µM); in [2] it was 5 µg/mL (≈ 11.8 µM); in data set [3], 10 µg/mL (≈ 23.7 µM); in [6] it was 20 µg/mL (≈ 47.3 µM); in [7], 10 µg/mL (≈ 23.7 µM).
On to `CO[C@@]12[C@H](COC(N)=O)C3=C(C(=O)C(C)=C(N=S(C)c4ccccc4)C3=O)N1C[C@@H]1N[C@@H]12` (stereo partly shown) [Compound 5, (E)-7-demethoxy-7-methylphenylsulfilimino mitomycin A], for which the LD50 at 336 h in data set [4] worked out at 15 mg/kg. In [5], the WBC4000 amounted to 4.1 mg/kg. In [8] (setting [10]), the ED50 came out at 2.7 mg/kg. In data set [8], the “C.I. (LD50/ED50)” value was determined as 5.6.
`C=C1C2=C(C(=O)C(C)=C(N=S(c3ccccc3)c3ccccc3)C2=O)N2C[C@H]3[C@H](N3C)[C@]12O` (stereo partly shown) [Compound 3]: the MIC in [2] turned out to be 0.63 µg/mL (≈ 1.38 µM). Moreover, the LD50 at 336 h in [4] was over 200 mg/kg. Besides, the WBC4000 in data set [5] is over 200 mg/kg. Moreover, in data set [8] (setting [10]), the ED50 turned out to be 132 mg/kg. For the same compound, the “C.I. (LD50/ED50)” value in data set [8] was over 1.5.
Regarding `CO[C@@]12[C@H](COC(N)=O)C3=C(C(=O)C(C)=C(N=S(c4ccccc4)c4ccccc4)C3=O)N1C[C@@H]1N[C@@H]12` [Compound 1, 7-demethoxy-7-diphenylsulfiliminomitomycin A], the MIC is 0.02 µg/mL (≈ 0.0386 µM) in [1]; under 0.005 µg/mL in data set [2]; 0.16 µg/mL (≈ 0.309 µM) in [3]; 0.63 µg/mL (≈ 1.21 µM) in [6]; 0.01 µg/mL (≈ 0.0193 µM) in [7].
